Common to all, as to type: in vitro ADME
The test system of series [1] is CYP1A2. The series is described as follows: CYP induction, CYP1A2 mRNA expression. The settings on record: human, mean fold shift compared to vehicle, read-out: Fold shift in mRNA expr. (CYP 1A2); for CYP1A2 mRNA fold change vs vehicle at 0.1 μM: >2-fold indicates induction. As for the experimental part: (§1) Reversible CYP inhibition, time dependent CYP inhibition (TDI) and CYP induction was tested at Cyprotex PLC according to authority guidance.
(§2) Induction of CYP1A2, CYP2B6 and CYP3A4 gene expression can serve as sensitive representative endpoints for activation of aryl hydrocarbon receptor (AhR), […], respectively. Induction of these nuclear receptors was assessed by measuring the increase in mRNA encoding for […], respectively, at relevant concentrations.
(§3) A >2-fold shift indicate CYP Induction.

The test system of series [2] is CYP. Put plainly: Time dependent CYP inhibition (TDI). The method, then: as §1
The test system of series [3] is CYP. Put plainly: Reversible CYP inhibition, overall statement. The settings on record: substrate concentrations up to 50 μM. As for the experimental part:
as §1

In series [4] the test system is CYP1A2 gene expression. The series is described as follows: CYP induction, CYP1A2 mRNA expression. The settings on record: Example 3: up to at least a concentration of 10 μM. As for the experimental part: as §1, §2, §3
Series [5] deals with CYP2C8 (Homo sapiens (Human), UniProt P10632). Put plainly: Reversible CYP inhibition, 2C8. The settings on record: up to 50 μM for Example 3. As for the experimental part: as §1
Sequence of CYP2C8 (P10632 whole entry): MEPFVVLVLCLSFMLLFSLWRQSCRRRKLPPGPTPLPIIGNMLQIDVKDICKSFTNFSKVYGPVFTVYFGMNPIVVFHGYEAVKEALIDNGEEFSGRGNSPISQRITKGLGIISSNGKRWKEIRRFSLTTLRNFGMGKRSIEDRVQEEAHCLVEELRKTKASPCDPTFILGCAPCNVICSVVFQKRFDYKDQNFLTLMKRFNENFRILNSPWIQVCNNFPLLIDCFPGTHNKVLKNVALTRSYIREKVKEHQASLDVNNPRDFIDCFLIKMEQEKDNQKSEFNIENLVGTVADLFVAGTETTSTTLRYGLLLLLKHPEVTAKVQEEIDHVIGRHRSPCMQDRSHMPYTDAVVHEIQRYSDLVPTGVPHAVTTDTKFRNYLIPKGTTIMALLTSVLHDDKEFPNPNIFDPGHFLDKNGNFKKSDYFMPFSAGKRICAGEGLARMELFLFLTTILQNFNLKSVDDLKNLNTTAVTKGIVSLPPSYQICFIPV
Series [6] addresses CYP2B6 (Homo sapiens (Human), UniProt P20813). Put plainly: Reversible CYP inhibition, 2B6. To be noted: up to 50 μM for Example 3. The method, then:
as §1

Each structure is given as a SMILES string. Some results are limits rather than exact numbers.

For orientation: IC50 means the point on the concentration scale where inhibition reaches its midpoint. A low value points to inhibition by little substance.

Sequence of CYP2B6 (P20813 whole entry): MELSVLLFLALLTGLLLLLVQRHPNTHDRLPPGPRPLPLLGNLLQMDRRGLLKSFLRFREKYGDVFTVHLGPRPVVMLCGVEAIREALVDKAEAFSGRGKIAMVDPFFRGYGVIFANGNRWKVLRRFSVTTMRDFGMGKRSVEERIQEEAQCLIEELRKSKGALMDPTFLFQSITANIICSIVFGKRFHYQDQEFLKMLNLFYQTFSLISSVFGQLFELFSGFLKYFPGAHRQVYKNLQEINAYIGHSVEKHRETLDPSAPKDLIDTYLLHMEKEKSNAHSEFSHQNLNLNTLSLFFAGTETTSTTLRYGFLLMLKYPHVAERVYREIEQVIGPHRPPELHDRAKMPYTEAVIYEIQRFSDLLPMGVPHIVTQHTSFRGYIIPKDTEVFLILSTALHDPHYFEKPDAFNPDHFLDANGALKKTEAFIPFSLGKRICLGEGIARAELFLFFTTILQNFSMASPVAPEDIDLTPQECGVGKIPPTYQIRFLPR

For the compound `C[C@@H](O)c1nc2cnc3[nH]ccc3c2n1[C@H]1CC[C@H](C#N)CC1` [Example 641 of WO2011086053], in series [1], the CYP1A2 mRNA fold change vs vehicle at 0.1 μM is 0.9, the CYP1A2 mRNA fold change vs vehicle at 1 μM came to 0.8 and the CYP1A2 mRNA fold change vs vehicle at 10 μM turned out to be 0.9.

As to `CNc1cc2c(cn1)nc([C@@H](C)O)n2[C@H]1CC[C@H](CC#N)CC1` [Example 3, trans-2-[4-[2-[(1R)-1-Hydroxyethyl]-6-(methylamino)imidazo[4,5-c]pyridin-1-yl]cyclohexyl]acetonitrile], the “time dependent CYP inhibition (in words)” value in series [2] is reported as “No time dependent CYP inhibition was indicated”. Further, the “CYP inhibition (in words)” value in series [3] is recorded as “no CYP inhibition”. Moreover, in series [1], the CYP1A2 mRNA fold change vs vehicle at 0.1 μM was found to be 0.8, the CYP1A2 mRNA fold change vs vehicle at 1 μM was determined as 0.7 and the CYP1A2 mRNA fold change vs vehicle at 10 μM is 0.8. Also, the “CYP1A2 induction (in words)” value in series [4] is given as “does not cause”. This compound displayed an IC50 in series [5] above 50 µM. The compound further came in with an IC50 in series [6] above 50 µM.

Source of the values: patent US10703751B2, “Amino-imidazopyridine derivatives as Janus kinase inhibitors and pharmaceutical use thereof” (LEO Pharma A/S, priority 2017, dated 2020).
